Reference: US7642239B2, “Inhibition of placenta growth factor (PLGF) mediated metastasis and/or angiogenesis” (Center for Molecular Medicine and Immunology, priority 2005, dated 2010)
Marks after values point to notes of the source that are not given here.

Legend:
MDA-MB-231 [1] = experiment: Wound-healing (motility) assay, MDA-MB-231; assay type: cell-based, human; settings: for Migrating cells: 18-24 h; for inhibition (block) of PlGF-stimulated motility / migration: soluble Flt-1 2 nM, PD98059 50 μM, Wortmannin 5 nM
Description: (§1) MCF-7, MDA-MB-23 1, and MDA-MB-468 breast tumor cell lines or HECs were seeded onto sterile glass coverslips in Petri dishes or six-well plates. When the cells were 70-80% confluent, the monolayers were scratched with a sterile plastic pipet tip.
(§2) Inhibitor concentrations were 50 μM PD98059 (PD98) (mitogen activated protein kinase-kinase 1 [MEK1] inhibitor), 5 nM Wortmannin (phosphatidyl inositol 3 kinase [PI3K] inhibitor), or human recombinant soluble Flt-1 (sFlt-1) (R&D Systems). […] Cells were pre-incubated with PD98 and Wortmannin for 15-30 min before addition of PlGF. Stained (Wright-Giemsa) and mounted coverslips were examined microscopically. Five to ten 100× fields were evaluated by counting the number of cells separated from the wound edges and which appeared to be migrating toward the center of the wound. Results are reported as the average number of cells migrating into the wound/100× field. In some cases data from separate experiments were combined to accommodate inclusion of various treatments in the tables.
(§3) Antibody concentration was 1 μg/ml. MEK1 inhibitor, PD98059 (PD98), 50 μM. PI3K inhibitor, Wortmannin, 5 nM. […] Values for antibody and inhibitor treatments were from separate experiments which included all relevant controls. […] UT denotes untreated controls. *P<0.01 (ANOVA) compared to UT; † P<0.02 (ANOVA) compared to PlGF only. ‡ P<0.001 (ANOVA) compared to PlGF only.

PlGF = target: T1, PlGF (Homo sapiens, UniProt P49763); experiment: Free peptide binding ELISA (FLAG epitope probe), PlGF-coated wells; settings: free peptide; BP3, BP4, BP3scr at up to 50 μM
T1 construct: purchased R&D Systems
T1 sequence (P49763 19-170 isoform P49763-3 limits assumed): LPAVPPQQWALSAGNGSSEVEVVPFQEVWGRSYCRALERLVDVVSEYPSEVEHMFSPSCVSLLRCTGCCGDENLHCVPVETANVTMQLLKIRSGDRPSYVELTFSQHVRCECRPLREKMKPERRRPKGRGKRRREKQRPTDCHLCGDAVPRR
Description: (§4) Competition assays were done with 2.5 or 25 U/ml heparin (Sigma, St. Louis, Mo.). BP1, 3, 4, and a scrambled version of BP3 (scrBP3) were synthesized with a linker followed by the FLAG epitope ([…] SEQ ID NO:5) at the C-terminus. Thirty minutes after addition of the first reagent, the second reagent was added, followed by another 30 minute incubation. Peptide binding was assessed by probing for the FLAG epitope (Prickett et al., Biotechniques 7:580-9, 1989; Castrucci et al., J. Virol. 66:4647-53, 1992). Absorbance was read at 490 nm.

VEGF165 = target: T2, VEGF165 (Homo sapiens, UniProt P15692); experiment: Free peptide binding ELISA (FLAG epitope probe), VEGF-coated wells; settings: ELISA-based binding assay
T2 construct: purchased R&D Systems
T2 sequence (P15692 27-191 isoform P15692-4): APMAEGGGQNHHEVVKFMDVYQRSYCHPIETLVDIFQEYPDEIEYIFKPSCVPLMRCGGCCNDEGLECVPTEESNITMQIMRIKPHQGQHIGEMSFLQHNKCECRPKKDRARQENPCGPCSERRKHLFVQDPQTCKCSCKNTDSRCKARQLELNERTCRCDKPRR
Description: as §4

[2] = target: T3, recombinant human Flt-1 fusion protein (Homo sapiens, UniProt P17948); experiment: Free peptide binding and competition ELISA, Flt-1-coated wells; settings: ELISA-based binding assay
T3 construct: purchased R & D Systems
T3 sequence (P17948 with tags, fused parts or gaps limits assumed): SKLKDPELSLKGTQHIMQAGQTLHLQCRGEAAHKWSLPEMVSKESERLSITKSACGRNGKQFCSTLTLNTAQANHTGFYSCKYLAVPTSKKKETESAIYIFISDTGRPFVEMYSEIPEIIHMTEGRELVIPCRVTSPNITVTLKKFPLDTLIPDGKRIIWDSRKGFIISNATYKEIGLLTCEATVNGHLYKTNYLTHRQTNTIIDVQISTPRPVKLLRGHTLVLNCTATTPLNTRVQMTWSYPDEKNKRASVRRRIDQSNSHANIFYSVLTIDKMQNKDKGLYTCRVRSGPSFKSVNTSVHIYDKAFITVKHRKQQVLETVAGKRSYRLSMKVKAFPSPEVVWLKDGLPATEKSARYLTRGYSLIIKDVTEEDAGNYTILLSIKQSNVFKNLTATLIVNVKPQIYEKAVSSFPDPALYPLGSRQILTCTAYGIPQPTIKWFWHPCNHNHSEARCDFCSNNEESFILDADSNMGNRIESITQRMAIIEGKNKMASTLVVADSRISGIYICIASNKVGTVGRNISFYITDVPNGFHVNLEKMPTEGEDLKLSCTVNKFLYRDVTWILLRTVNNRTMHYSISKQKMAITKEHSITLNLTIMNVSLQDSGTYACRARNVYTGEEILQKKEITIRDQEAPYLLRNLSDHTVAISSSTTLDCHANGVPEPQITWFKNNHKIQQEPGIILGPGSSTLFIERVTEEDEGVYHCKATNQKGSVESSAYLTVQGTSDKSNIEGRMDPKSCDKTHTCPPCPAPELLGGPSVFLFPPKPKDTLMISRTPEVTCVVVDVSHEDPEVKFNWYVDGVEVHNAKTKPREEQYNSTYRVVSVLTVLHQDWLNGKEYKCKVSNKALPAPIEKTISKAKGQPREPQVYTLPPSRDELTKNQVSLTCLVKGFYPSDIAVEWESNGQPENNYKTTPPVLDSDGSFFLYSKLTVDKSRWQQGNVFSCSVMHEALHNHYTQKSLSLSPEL
Description: as §4

MDA-MB-468 = experiment: Wound-healing (motility) assay, MDA-MB-468; assay type: cell-based, human; settings: for Migrating cells: 18-24 h
Description: as §1, §2, §3

MCF-7 = experiment: Wound-healing (motility) assay, MCF-7; assay type: cell-based, human; settings: for Migrating cells: 18-24 h
Description: as §1, §2, §3

MDA-MB-231 [3] = experiment: Matrigel cell invasion assay, MDA-MB-231; assay type: cell-based, human; settings: 24 h
Description: Cellular invasion was determined by addition of 5×10^4cells to growth factor-reduced Matrigel invasion chambers (BD Biosciences Discovery Labware, Bedford, Mass.) (Taylor et al., 2003b; Passaniti et al., 1992, Lab Invest 67, 519-528). Additives to the Matrigel® plugs were pre-incubated together in a total volume of 100 μl PBS at RT for 10 min, after which each additive was added to the Matrigel. Growth factors (2.0 or 0.2 nM), peptide (2 μg/ml), or antibody (1 μg/ml) were added to cells in low serum (0.1% fetal bovine serum [FBS]) medium. Baseline and chemoattractant-based invasion (10% FBS) were included. The number of invading cells was determined by counting the number of cells on the bottom of the invasion chamber membrane after staining at 100× magnification after 24 h (MDA-MB-231) or 48 h (MCF-7, MDA-MB-468). The results of three to five separate experiments are presented.

[4] = tested on: MDA-MB-231 s.c. xenograft; experiment: Subcutaneous MDA-MB-231 xenograft growth and lung metastasis; assay type: in vivo, nude mice; settings: subsequent experiment, start at 0.07-0.08 cm^3; 200 μg i.p.; mock 0.25
Description: The tissue-culture-grown human breast tumor cell line, MDA-MB-231, was implanted subcutaneously (s.c.) on the flanks of nude mice. When tumors were visible, the mice were weighed and the tumors measured. Treatment with peptides was begun when tumors averaged about 0.06-0.12 cm^3 in volume. Mice were treated with 200-μg peptide in PBS by i.p. injection at 3-4-day intervals for 4 weeks. Animals were weighed and the tumors measured at each treatment. In a second experiment, the control peptide, CPA, was included. Three days after the final treatment, tumors and lungs were harvested. Tumor burden of the lungs (from experiment 1) was determined by counting colonies (<20 cells), clusters (>20-100 cells), and nodules (>100 cells) seen in all the lung tissue on a total of 4 slides or sections for each mouse. Data are presented as the average number of each size of metastasis for each treatment group (3-4 mice/group). The total number of each was summed for each treatment group, and divided by the total number of mice in that group. The percent inhibition for metastasis was determined by the formula: % inhibition=(# mock-treated−# treated/# mock-treated)×100.
To test for therapeutic activity of the peptide, BP1, mice were implanted with human breast cancer cells, MDA-MB-231, which produces lung metastases spontaneously when implanted as a subcutaneous tumor. When the tumors averaged 0.12 cm^3 in volume, either mock-treatment or therapy with BP1 was initiated at 200 μg, two times per week for 4 weeks. […] In a subsequent experiment, treatment was commenced when tumors were 0.07-0.08 cm^3. After 4 weeks of treatment, as described, the mean volume of the mock- and CPA-treated tumors was 0.25 and 0.33 cm^3, respectively, whereas BP1-treated tumors averaged 0.04 cm^3 (P<0.05 BP1 vs. mock- or CPA-treated tumors) (FIG. 3A).

MDA-MB-231 mfp tumor = experiment: Orthotopic mammary fat pad (mfp) MDA-MB-231 model; assay type: in vivo, SCID mice
Excerpt: MDA-MB-231, grown in tissue culture, was also implanted in the mammary fat pad (mfp) of SCID mice (3×10^6 cells, 4-5 mice/group). In this model, large pulmonary metastases are less likely to develop (Richert et al., Breast Cancer Res. 7:R819-27, 2005). Peptide treatment was commenced on day 5 after implantation, when small tumors were palpable in all mice (8 treatments). Three days after the final peptide treatment, tumors were removed and weighed. Lungs were harvested and examined microscopically for metastases, as described above.

MDA-MB-468 xenografts = assay type: in vivo, mice; settings: 200 μg/dose i.p., twice-weekly, after 4 weeks
Description: FIG. 5. Treatment of mice bearing MDA-MB-468 xenografts with peptides BP1 or BP3. Mice were treated every 3-4 days with 200 ug BP as described in Methods. Tumor volume was measured 2×/week. *P<0.05 at days 10, 14, 17 and 24 (change in tumor volume (ANOVA)). FIG. 5A—tumors treated with binding peptide 1. FIG. 5B—tumors treated with binding peptide 3.
Mice bearing MDA-MB-468 xenografts (average tumor volume: 0.19 cm^3) were treated with i.p. injections of individual peptides (200 μg/dose) (FIG. 5). After 4 weeks of twice-weekly treatment, tumor growth was inhibited by 49% and 58% in mice treated with BP1 (FIG. 5A) or BP3 (FIG. 5B), respectively. The effect of BP3 on tumor growth was apparent after 2 weeks of treatment (FIG. 5B), whereas the inhibitory effect of BP1 was evident after one week (FIG. 5A). The average changes in individual tumor volumes during treatment with BP1 were significant (P<0.05) at days 10, 14, 17 and 24 (FIG. 5A). Treatment with BP2 was ineffective; tumors continued to grow at almost the same rate as the mock-treated controls (results not shown). BP4 treatment produced a 20% inhibition of tumor growth (results not shown).

[5] = PlGF 2 nM ± test agent, relative to PlGF-only value, unit assumed
[6] = growth factor PlGF 2 nM ± test agent (Flt-1 2 nM, peptide 2 μM, antibody 1 μg/ml, PD98059 50 μM, Wortmannin 5 nM)
[7] = VEGF 2 nM ± test agent, relative to VEGF-only value, unit assumed
[8] = growth factor VEGF 2 nM ± test agent (peptide 2 μM, antibody 1 μg/ml)
[9] = growth factor PlGF 2 nM ± test agent (Flt-1 2 nM, peptide 2 μM, antibody 1 μg/ml)
[10] = growth factor VEGF 2 nM ± test agent
[11] = PlGF 2 nM ± test agent, relative to PlGF-only value

COc1cccc(-c2cc(=O)c3ccccc3o2)c1N [PD98059, reference compound]
Relative activity (MDA-MB-231 [1]; [5]): 43% | Migrating cells (MDA-MB-231 [1]; [6]): 18.4 ± 8.0‡ cells/100× field | inhibition (block) of PlGF-stimulated motility / migration (MDA-MB-231 [1]): 68%

COC[C@H]1OC(=O)c2coc3c2[C@@]1(C)C1=C(C3=O)[C@@H]2CCC(=O)[C@@]2(C)C[C@H]1OC(C)=O [Wortmannin, reference compound]
Relative activity (MDA-MB-231 [1]; [5]): 39% | Migrating cells (MDA-MB-231 [1]; [6]): 16.4 ± 5.8‡ cells/100× field | inhibition (block) of PlGF-stimulated motility / migration (MDA-MB-231 [1]): 72%

CPA: control peptide derived by substituting A for the H, R and D residues in BP1 (SAAYALAIQLAASASSSSCV) [reference compound]
binding to PlGF (in words) (PlGF): bound | binding to VEGF (in words) (VEGF165): bound | attenuated affinity for Flt-1 [2]: 50% | Relative activity (MDA-MB-231 [1]; [7]): 121% | effect on PlGF-stimulated motility (in words) (MDA-MB-231 [1]; antibody 1 μg/ml, peptide 2 μM): had no effect | Migrating cells (MDA-MB-231 [1]; [6]): 39.8 ± 10.6 cells/100× field | Migrating cells (MDA-MB-231 [1]; [8]): 13.4 ± 4.5 cells/100× field | Relative activity (MDA-MB-468; [7]): 104% | Migrating cells (MDA-MB-468; [9]): 21.6 ± 6.1 cells/100× field | Migrating cells (MDA-MB-468; [10]): 14.6 ± 8.0 cells/100× field | Relative activity (MCF-7; [7]): 111% | Migrating cells (MCF-7; [10]): 19.4 ± 8.9 cells/100× field | invading cells, PlGF plus peptide (MDA-MB-231 [3]; PlGF-stimulated invasion with added peptide): 35±17.3 cells | mean tumor volume after 4 weeks of treatment [4]: 0.33 cm^3 | tumor weight (MDA-MB-231 mfp tumor; 8 peptide treatments, mock-treated 0.423±0.089): 0.416 ± 0.083 g | micrometastasis counts per mouse (MDA-MB-231 mfp tumor; lung, mock-treated 3.4±1.9): 2.8±1.3

QDDHLTTGR (listed as Homo sapiens) [BP2]
tumor growth inhibition (MDA-MB-468 xenografts): ineffective

VEGF
Migrating cells (MDA-MB-231 [1]; [8]): 11.1 ± 1.8 cells/100× field | Migrating cells (MDA-MB-468; [10]): 14.0 ± 11.3 cells/100× field | Migrating cells (MCF-7; [10]): 12.7 ± 4.1 cells/100× field | invading cells (MDA-MB-231 [3]; VEGF 2.0 nM or 0.2 nM): 10±8.0 cells

B1: Flt-1: human recombinant soluble Flt-1 (sFlt-1) (R&D Systems) (protein)
chain: SKLKDPELSLKGTQHIMQAGQTLHLQCRGEAAHKWSLPEMVSKESERLSITKSACGRNGKQFCSTLTLNTAQANHTGFYSCKYLAVPTSKKKETESAIYIFISDTGRPFVEMYSEIPEIIHMTEGRELVIPCRVTSPNITVTLKKFPLDTLIPDGKRIIWDSRKGFIISNATYKEIGLLTCEATVNGHLYKTNYLTHRQTNTIIDVQISTPRPVKLLRGHTLVLNCTATTPLNTRVQMTWSYPDEKNKRASVRRRIDQSNSHANIFYSVLTIDKMQNKDKGLYTCRVRSGPSFKSVNTSVHIYDKAFITVKHRKQQVLETVAGKRSYRLSMKVKAFPSPEVVWLKDGLPATEKSARYLTRGYSLIIKDVTEEDAGNYTILLSIKQSNVFKNLTATLIVNVKPQIYEKAVSSFPDPALYPLGSRQILTCTAYGIPQPTIKWFWHPCNHNHSEARCDFCSNNEESFILDADSNMGNRIESITQRMAIIEGKNKMASTLVVADSRISGIYICIASNKVGTVGRNISFYITDVPNGFHVNLEKMPTEGEDLKLSCTVNKFLYRDVTWILLRTVNNRTMHYSISKQKMAITKEHSITLNLTIMNVSLQDSGTYACRARNVYTGEEILQKKEITIRDQEAPYLLRNLSDHTVAISSSTTLDCHANGVPEPQITWFKNNHKIQQEPGIILGPGSSTLFIERVTEEDEGVYHCKATNQKGSVESSAYLTVQGTSDKSN
modifications: left off: large carriers
Relative activity (MDA-MB-231 [1]; [11]): 45 | Migrating cells (MDA-MB-231 [1]; [6]): 19.1 ± 8.0† cells/100× field | inhibition (block) of PlGF-stimulated motility / migration (MDA-MB-231 [1]): 55% | Relative activity (MDA-MB-468; [11]): 53 | Migrating cells (MDA-MB-468; [9]): 7.8 ± 5.9† cells/100× field | Relative activity (MCF-7; [11]): 47 | Migrating cells (MCF-7; [9]): 10.4 ± 8.2† cells/100× field | block of the stimulatory effect of PlGF on motility (MCF-7; soluble Flt-1 2 nM): 67%
